Tests used:
[1] = tested on: bamyardgrass; test: Test B flood test barnyardgrass; format: in vivo, Echinochloa crus-galli; conditions: for Plant response rating, Barnyardgrass (0 to 10 scale, 0 is no effect, 10 is complete control) / Barnyardgrass plant response rating (0 to 10 scale, 0 is no effect, 10 is complete control): visual evaluation after twelve to sixteen days; for Barnyardgrass plant response rating (0 to 10 scale, 0 is no effect, 10 is complete control): under heading Pre-emergence
Method in brief: (§1)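 Flood test on plants grown to the 2-leaf stage; treated plants kept in greenhouse twelve to sixteen days, then visually rated against controls on a 0 (no effect) to 10 (complete control) scale.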

[2] = tested on: bedstraw; test: Test B pre/postemergence bedstraw; format: in vivo, Galium aparine; conditions: for Bedstraw plant response rating (0 to 10 scale): 0 is no effect
Method in brief: (§2)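 Herbicidal effect was estimated by eye on a ten-point control scale after plants spent twelve to sixteen days in a greenhouse following soil or foliar treatment. Foliar sprays targeted plants at one to four leaves; all doses were formulated in a non-phytotoxic solvent with surfactant.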

[3] = tested on: pigweed; test: Test B pre/postemergence pigweed; format: in vivo, Amaranthus retroflexus; conditions: for Redroot pigweed plant response rating (0 to 10 scale): 0 is no effect
Method in brief: as §2

[4] = tested on: rice; test: Test B flood test rice; format: in vivo, Oryza sativa; conditions: for Plant response rating, Rice (0 to 10 scale, 0 is no effect, 10 is complete control) / Rice plant response rating (0 to 10 scale, 0 is no effect, 10 is complete control): visual evaluation after twelve to sixteen days; for Rice plant response rating (0 to 10 scale, 0 is no effect, 10 is complete control): under heading Pre-emergence
Method in brief: as §1

[5] = Rate 62 g/ha, flood test species, Pre-emergence
[6] = Rate 125 g/ha, flood test species
[7] = Rate 250 g/ha, Pre-emergence (flood test species), scale 0 to 10, 0 is no effect, 10 is complete control
[8] = Rate 500 g/ha, Pre-emergence, flood test species, scale 0 to 10 (0 no effect, 10 complete control)
[9] = Postemergence, Rate 250 g/ha, scale 0 to 10
[10] = Postemergence, Rate 500 g/ha, scale of 0 to 10 where 0 is no effect and 10 is complete control
[11] = Preemergence, Rate 62 g/ha, scale of 0 to 10 where 0 is no effect and 10 is complete control
[12] = Preemergence, Rate 125 g/ha, scale of 0 to 10 where 0 is no effect and 10 is complete control
[13] = Preemergence, Rate 250 g/ha, scale 0 to 10, 0 is no effect, 10 is complete control
[14] = Preemergence, Rate 500 g/ha, scale 0 to 10, 0 is no effect, 10 is complete control
[15] = Rate 125 g/ha, Postemergence, scale 0 to 10, 0 is no effect, 10 is complete control
[16] = Rate 500 g/ha, Pre-emergence section of Table B, 0 to 10 scale (0 no effect, 10 complete control)
[17] = Postemergence, Rate 62 g/ha, scale 0 to 10, 0 is no effect, 10 is complete control
[18] = Preemergence, Rate 62 g/ha, scale 0 to 10 (0 no effect, 10 complete control)
[19] = Preemergence, Rate 250 g/ha, scale 0 to 10 (0 no effect, 10 complete control)
[20] = Preemergence, Rate 500 g/ha, scale of 0 to 10 where 0 is no effect and 10 is complete control
[21] = Postemergence, Rate 125 g/ha, scale of 0 to 10 where 0 is no effect and 10 is complete control
[22] = Postemergence, Rate 250 g/ha, scale of 0 to 10, 0 is no effect, 10 is complete control
[23] = Rate 31 g/ha, Pre-emergence section (flood test species), scale 0 to 10
[24] = Rate 62 g/ha, headed Pre-emergence (flood test species), scale 0 to 10 (0 no effect, 10 complete control)
[25] = Rate 125 g/ha, Pre-emergence, flood test species, scale 0 to 10 where 0 is no effect and 10 is complete control
[26] = Rate 250 g/ha, Pre-emergence, flood-test species, scale 0 to 10, 0 is no effect, 10 is complete control
[27] = Rate 500 g/ha, headed Pre-emergence (flood test species), scale 0 to 10 (0 no effect, 10 complete control)
[28] = Preemergence, Rate 125 g/ha, 10 is complete control
[29] = Rate 62 g/ha, Postemergence, scale of 0 to 10 where 0 is no effect and 10 is complete control
[30] = Rate 125 g/ha, Postemergence, scale 0 to 10
[31] = Rate 500 g/ha, Postemergence, scale 0 to 10
[32] = Pre-emergence, Rate 62 g/ha, scale 0 to 10, 0 is no effect, 10 is complete control
[33] = Rate 125 g/ha, Pre-emergence section (flood test species), scale 0 to 10, 0 no effect, 10 complete control
[34] = Preemergence, Rate 250 g/ha, scale 0 (no effect) to 10 (complete control)
[35] = Rate 62 g/ha, Preemergence, scale 0 to 10
[36] = Rate 250 g/ha, Postemergence, scale 0 to 10, 0 is no effect, 10 is complete control
[37] = Rate 500 g/ha, Postemergence, scale 0 to 10, 0 is no effect, 10 is complete control
[38] = Rate 500 g/ha, Preemergence, scale 0 to 10 (0 no effect, 10 complete control)
[39] = Postemergence (flood test species), Rate 125 g/ha, scale of 0 to 10 where 0 is no effect and 10 is complete control
[40] = Rate 62 g/ha, Postemergence section, flood test species, scale of 0 to 10 where 0 is no effect and 10 is complete control
[41] = Rate 250 g/ha, Postemergence (flood test), scale 0 to 10, 0 is no effect, 10 is complete control
[42] = Rate 500 g/ha, listed under Postemergence (flood test species), scale 0 to 10
[43] = Preemergence, Rate 500 g/ha, scale 0 to 10 (0 no effect, 10 complete control)
[44] = Pre-emergence, Rate 1000 g/ha, scale 0 to 10 (0 no effect, 10 complete control)
[45] = Postemergence, Rate 1000 g/ha, scale 0 to 10 (0 no effect, 10 complete control)
[46] = Rate 1000 g/ha, Preemergence, scale 0 to 10 (0 no effect, 10 complete control)

CC[Si](C)(C)Cn1c(=O)on(C(=O)N(c2ccc(F)cc2)C(C)C)c1=O [Compound 459]
8: Bedstraw plant response rating [2, 10]
4: Redroot pigweed plant response rating [3, 13]
7: Redroot pigweed plant response rating [3, 14]
0: Plant response rating, Barnyardgrass (0 to 10 scale, 0 is no effect, 10 is complete control) [1, 5] | Barnyardgrass plant response rating (0 to 10 scale, 0 is no effect, 10 is complete control) [1, 6] | Barnyardgrass plant response rating [1, 7] | Barnyardgrass plant response rating [1, 8] | Plant response rating, Bedstraw [2, 11] | Plant response rating, Bedstraw [2, 12] | Redroot pigweed plant response rating [3, 9] | Plant response rating, Redroot pigweed [3, 11] | Plant response rating, Redroot pigweed [3, 12] | Redroot pigweed plant response rating ([3]; Rate 62 g/ha, Postemergence, scale 0 to 10, 0 no effect, 10 complete control) | Redroot pigweed plant response rating [3, 15] | Plant response rating, Rice (0 to 10 scale, 0 is no effect, 10 is complete control) [4, 5] | Rice plant response rating (0 to 10 scale, 0 is no effect, 10 is complete control) [4, 6] | Rice plant response rating [4, 7] | Rice plant response rating [4, 8]
6: Bedstraw plant response rating [2, 9]

CC(C)N(C(=O)n1oc(=O)n(COCC[Si](C)(C)C)c1=O)c1ccc(Cl)cc1 [Compound 467]
9: Redroot pigweed plant response rating [3, 14]
7: Plant response rating, Redroot pigweed [3, 11] | Plant response rating, Redroot pigweed [3, 12] | Redroot pigweed plant response rating [3, 13]
3: Redroot pigweed plant response rating [3, 9]
0: Plant response rating, Barnyardgrass (0 to 10 scale, 0 is no effect, 10 is complete control) [1, 5] | Barnyardgrass plant response rating (0 to 10 scale, 0 is no effect, 10 is complete control) [1, 6] | Barnyardgrass plant response rating [1, 7] | Barnyardgrass plant response rating [1, 8] | Plant response rating, Bedstraw [2, 11] | Plant response rating, Bedstraw [2, 12] | Bedstraw plant response rating [2, 13] | Bedstraw plant response rating [2, 14] | Redroot pigweed plant response rating [3, 15] | Plant response rating, Rice (0 to 10 scale, 0 is no effect, 10 is complete control) [4, 5] | Rice plant response rating (0 to 10 scale, 0 is no effect, 10 is complete control) [4, 6] | Rice plant response rating [4, 7] | Rice plant response rating [4, 8]

CCOC(Cn1c(=O)on(C(=O)N(c2ccc(F)cc2F)C(C)C)c1=O)OCC [Compound 630]
10: Plant response rating, Redroot pigweed [3, 19] | Plant response rating, Redroot pigweed [3, 20]
1: Redroot pigweed plant response rating [3, 22]
2: Redroot pigweed plant response rating [3, 18]
7: Plant response rating, Bedstraw [2, 20]
0: Plant response rating, Barnyardgrass (0 to 10 scale, 0 is no effect, 10 is complete control) [1, 5] | Barnyardgrass plant response rating (0 to 10 scale, 0 is no effect, 10 is complete control) [1, 6] | Barnyardgrass plant response rating [1, 7] | Barnyardgrass plant response rating [1, 16] | Plant response rating, Bedstraw [2, 17] | Bedstraw plant response rating [2, 18] | Bedstraw plant response rating [2, 12] | Plant response rating, Bedstraw [2, 19] | Plant response rating, Redroot pigweed [3, 17] | Plant response rating, Redroot pigweed [3, 21] | Plant response rating, Rice (0 to 10 scale, 0 is no effect, 10 is complete control) [4, 5] | Rice plant response rating (0 to 10 scale, 0 is no effect, 10 is complete control) [4, 6] | Rice plant response rating [4, 7] | Rice plant response rating [4, 16]
9: Redroot pigweed plant response rating [3, 12]

Cc1nc(C)c(-n2c(=O)on(C(=O)N(c3ccc(Cl)cc3)C(C)C)c2=O)s1 [Compound 196]
0: Barnyardgrass plant response rating [1, 23] | Barnyardgrass plant response rating [1, 24] | Barnyardgrass plant response rating [1, 25] | Barnyardgrass plant response rating [1, 26] | Plant response rating, Barnyardgrass [1, 27] | Bedstraw plant response rating [2, 11] | Bedstraw plant response rating (0 to 10 scale) [2, 28] | Bedstraw plant response rating [2, 13] | Plant response rating, Bedstraw [2, 20] | Bedstraw plant response rating [2, 29] | Bedstraw plant response rating [2, 30] | Plant response rating (0 to 10; 0 is no effect, 10 is complete control), Bedstraw ([2]; Rate 250 g/ha, Postemergence) | Bedstraw plant response rating [2, 31] | Redroot pigweed plant response rating [3, 11] | Redroot pigweed plant response rating (0 to 10 scale) [3, 28] | Redroot pigweed plant response rating [3, 13] | Plant response rating, Redroot pigweed [3, 20] | Redroot pigweed plant response rating [3, 29] | Redroot pigweed plant response rating [3, 30] | Plant response rating (0 to 10; 0 is no effect, 10 is complete control), Redroot pigweed ([3]; Rate 250 g/ha, Postemergence) | Redroot pigweed plant response rating [3, 31] | Rice plant response rating [4, 23] | Rice plant response rating [4, 24] | Rice plant response rating [4, 25] | Rice plant response rating [4, 26] | Plant response rating, Rice [4, 27]

CC(C)N(C(=O)n1oc(=O)n(CC2=NOCCO2)c1=O)c1ccc(F)cc1F [Compound 758]
8: Bedstraw plant response rating [2, 37] | Redroot pigweed plant response rating [3, 21] | Plant response rating, Redroot pigweed [3, 12] | Redroot pigweed plant response rating [3, 34] | Redroot pigweed plant response rating [3, 35] | Redroot pigweed plant response rating [3, 36] | Redroot pigweed plant response rating [3, 37]
7: Bedstraw plant response rating [2, 21] | Bedstraw plant response rating [2, 36] | Plant response rating, Redroot pigweed [3, 17]
0: Barnyardgrass plant response rating [1, 32] | Barnyardgrass plant response rating [1, 33] | Barnyardgrass plant response rating [1, 7] | Barnyardgrass plant response rating [1, 16] | Bedstraw plant response rating [2, 35] | Rice plant response rating [4, 32] | Rice plant response rating [4, 33] | Rice plant response rating [4, 7] | Rice plant response rating [4, 16]
4: Bedstraw plant response rating [2, 38]
1: Plant response rating, Bedstraw [2, 12]
10: Redroot pigweed plant response rating [3, 38]
3: Bedstraw plant response rating [2, 34]

CC(C)N(C(=O)n1oc(=O)[nH]c1=O)c1ccc(F)cc1 [Compound 164]
0: Barnyardgrass plant response rating [1, 39] | Barnyardgrass plant response rating [1, 40] | Plant response rating, Barnyardgrass [1, 41] | Barnyardgrass plant response rating [1, 42] | Bedstraw plant response rating [2, 21] | Bedstraw plant response rating [2, 11] | Bedstraw plant response rating (0 to 10 scale) [2, 28] | Bedstraw plant response rating [2, 13] | Bedstraw plant response rating [2, 43] | Bedstraw plant response rating [2, 29] | Redroot pigweed plant response rating [3, 21] | Redroot pigweed plant response rating [3, 11] | Redroot pigweed plant response rating (0 to 10 scale) [3, 28] | Redroot pigweed plant response rating [3, 13] | Redroot pigweed plant response rating [3, 43] | Redroot pigweed plant response rating [3, 29] | Plant response rating, Redroot pigweed [3, 36] | Redroot pigweed plant response rating [3, 31] | Rice plant response rating [4, 39] | Rice plant response rating [4, 40] | Plant response rating, Rice [4, 41] | Rice plant response rating [4, 42]

CCOP(=O)(Cn1c(=O)on(C(=O)N(c2ccc(F)cc2)C(C)C)c1=O)OCC [Compound 587]
3: Plant response rating, Bedstraw [2, 10] | Plant response rating, Bedstraw [2, 46] | Plant response rating, Redroot pigweed [3, 46]
7: Bedstraw plant response rating [2, 45]
2: Bedstraw plant response rating [2, 20] | Redroot pigweed plant response rating [3, 20]
0: Barnyardgrass plant response rating [1, 44] | Barnyardgrass plant response rating (0 to 10 scale, 0 is no effect, 10 is complete control) [1, 6] | Barnyardgrass plant response rating [1, 7] | Barnyardgrass plant response rating [1, 16] | Bedstraw plant response rating [2, 12] | Plant response rating, Redroot pigweed [3, 21] | Redroot pigweed plant response rating [3, 22] | Plant response rating, Redroot pigweed [3, 10] | Redroot pigweed plant response rating [3, 45] | Redroot pigweed plant response rating [3, 12] | Rice plant response rating [4, 44] | Rice plant response rating (0 to 10 scale, 0 is no effect, 10 is complete control) [4, 6] | Rice plant response rating [4, 7] | Rice plant response rating [4, 16]

Reference: patent US6737383B1, “Herbicidal oxadiazolidines” (priority 1999, dated 2004)
